Experimental data published in ChEMBL document CHEMBL1138575, “Synthesis of alpha-amyrin derivatives and their in vivo antihyperglycemic activity” (2009).

Legend:
Assay type in all cases: functional
Design in all cases: scale not given: the % may be the effect or the level left
[1] = test system: Rattus norvegicus; assay: Antihyperglycemic activity against sucrose-challenged streptozotocin-induced fasted albino Sprague-Dawley rat assessed as reduction in blood glucose at 100 mg/kg, po administered 30 mins before sucrose challenge measured after 5 hrs post sucrose dose
[2] = test system: Rattus norvegicus; assay: Antihyperglycemic activity against sucrose-challenged streptozotocin-induced fasted albino Sprague-Dawley rat assessed as reduction in blood glucose at 100 mg/kg, po administered 30 mins before sucrose challenge measured after 24 hrs post sucrose dose
[3] = test system: Rattus norvegicus; assay: Antihyperglycemic activity against fasted sucrose-loaded albino rat model assessed as reduction in blood glucose at 100 mg/kg, po administered 30 mins before sucrose challenge measured after 5 hrs post sucrose dose
[4] = test system: Rattus norvegicus; assay: Antihyperglycemic activity against fasted sucrose-loaded albino rat model assessed as reduction in blood glucose at 100 mg/kg, po administered 30 mins before sucrose challenge measured after 24 hrs post sucrose dose

SMILES	Activity [1]	Activity [2]	Activity [3]	Activity [4]
C[C@H]1[C@H](C)CC[C@]2(C)CC[C@]3(C)C(=CC[C@@H]4[C@@]5(C)CC[C@H](OC(=O)CNC(=O)c6ccccc6)C(C)(C)[C@@H]5CC[C@]43C)[C@H]12	3.15%	12.1%	–	–
C[C@H]1[C@H](C)CC[C@]2(C)CC[C@]3(C)C(=CC[C@@H]4[C@@]5(C)CC[C@H](OC(=O)c6cccnc6)C(C)(C)[C@@H]5CC[C@]43C)[C@H]12	18.2%	27.6%	–	–
C[C@H]1[C@H](C)CC[C@]2(C)CC[C@]3(C)C(=CC[C@@H]4[C@@]5(C)CC[C@H](OC(=O)c6ccc7ccccc7n6)C(C)(C)[C@@H]5CC[C@]43C)[C@H]12	19.6%	17.8%	–	–
CC(=O)O[C@H]1CC[C@]2(C)[C@H]3CC=C4[C@@H]5[C@@H](C)[C@H](C)CC[C@]5(C)CC[C@@]4(C)[C@]3(C)CC[C@H]2C1(C)C	18.4%	17%	–	–
Cc1ccc(C)c(C(=O)O[C@H]2CC[C@]3(C)[C@H]4CC=C5[C@@H]6[C@@H](C)[C@H](C)CC[C@]6(C)CC[C@@]5(C)[C@]4(C)CC[C@H]3C2(C)C)c1	24.9%	20.2%	–	–
C[C@H]1[C@H](C)CC[C@]2(C)CC[C@]3(C)C(=CC[C@@H]4[C@@]5(C)CC[C@H](OC(=O)c6ccc(Cl)cc6)C(C)(C)[C@@H]5CC[C@]43C)[C@H]12	22.1%	25.6%	–	–
C[C@H]1[C@H](C)CC[C@]2(C)CC[C@]3(C)C(=CC[C@@H]4[C@@]5(C)CC[C@H](OC(=O)c6ccccc6C(=O)O)C(C)(C)[C@@H]5CC[C@]43C)[C@H]12	11%	16.5%	–	–
CN(C)C(=N)NC(=N)N [METFORMIN]	23.5%	26.5%	–	–
C[C@H]1[C@H](C)CC[C@]2(C)CC[C@]3(C)C(=CC[C@@H]4[C@@]5(C)CC[C@H](O)C(C)(C)[C@@H]5CC[C@]43C)[C@H]12	13.9%	8.12%	–	–
C[C@H]1[C@H](C)CC[C@]2(C)CC[C@]3(C)C(=CC[C@@H]4[C@@]5(C)CC[C@H](OC(=O)CCCC(=O)c6ccccc6)C(C)(C)[C@@H]5CC[C@]43C)[C@H]12	24%	23.5%	–	–
C[C@H]1[C@H](C)CC[C@]2(C)CC[C@]3(C)C(=CC[C@@H]4[C@@]5(C)CC[C@H](OC(=O)c6ccc([N+](=O)[O-])cc6)C(C)(C)[C@@H]5CC[C@]43C)[C@H]12	13.8%	27.6%	–	–
C/C=C(\C)C(=O)O[C@H]1CC[C@]2(C)[C@H]3CC=C4[C@@H]5[C@@H](C)[C@H](C)CC[C@]5(C)CC[C@@]4(C)[C@]3(C)CC[C@H]2C1(C)C	12.7%	22.6%	–	–
C[C@H]1[C@H](C)CC[C@]2(C)CC[C@]3(C)C(=CC[C@@H]4[C@@]5(C)CC[C@H](OC(=O)CCC(=O)O[C@H]6CC[C@]7(C)[C@H]8CC=C9[C@@H]%10[C@@H](C)[C@H](C)CC[C@]%10(C)CC[C@@]9(C)[C@]8(C)CC[C@H]7C6(C)C)C(C)(C)[C@@H]5CC[C@]43C)[C@H]12	24.3%	15.6%	–	–
COc1ccc(CC(=O)O[C@H]2CC[C@]3(C)[C@H]4CC=C5[C@@H]6[C@@H](C)[C@H](C)CC[C@]6(C)CC[C@@]5(C)[C@]4(C)CC[C@H]3C2(C)C)cc1	17.5%	15.6%	–	–
C[C@H]1[C@H](C)CC[C@]2(C)CC[C@]3(C)C(=CC[C@@H]4[C@@]5(C)CC/C(=N\N(C(=S)Nc6ccccc6)c6ccc([N+](=O)[O-])cc6[N+](=O)[O-])C(C)(C)[C@@H]5CC[C@]43C)[C@H]12	–	–	1.2%	7.35%
